Assay results as given in patent publication US6734161B1, “Peptide nucleic acids having antibacterial activity” (priority 1997, dated 2004).
{LysNH2} = C-terminal lysine amide

What was measured:
[1] = test system: β-Galactosidase (start codon region); experiment: in vitro coupled transcription/translation in E. coli S-30 cell extract, β-galactosidase production; assay type: biochemical
Protocol: (§1) Strain D10-1 was grown to mid log phase in LB media supplemented with 4 g/L glucose. The preparation of S-30 cell extracts and coupled transcription/translation reactions were carried out as described in Ellman, J., ibid., using plasmid pMAS2, which carries the E. coli gene for β-galactosidase.
PNA oligomers (SEQ ID NOs. 5-8 above) were evaluated in an in vitro assay in which plasmid DNA encoding the genes for β-galactosidase and β-lactamase were added to a template depleted e. coli S-30 cell extract along with the reagents necessary for coupled transcription and translation (Chen, H. Z., Zubay, G., Methods in Enzymol., 1983, 101, 674-690; Ellman, J., et al., Methods in Enzymol., 1991, 202, 301-337). The assay is sensitive to inhibitors that prevent initiation of translation.

β-lactamase = settings: for inhibition of β-lactamase production in strain carrying two base substitutions: AS19 transformed with pLac-2, compared with pBR322; for inhibition of β-lactamase production in strain carrying 6 base substitutions: AS19 transformed with pLac-6
Protocol: The cultures were grown at 37° C. to approximately 0.5 O.D. 550 nm. β-Lactamase activity was determined using the chromogenic β-lactamase substrate PADAC (Calbiochem, San Diego, Calif.) and absorbance measurements at 570 nm (Kobayashi, et al., Antimicrob. Agents Chemotherap., 1988, 32, 1040). β-Galactosidase activity was determined using the substrate o-nitrophenyl-β-galactoside (ONPG) and absorbance measurements at 420 nm as described previously (Miller, J. H., Experiments in Molecular Genetics, 1972, Cold Spring Harbor, N.Y., 1972, 82-85).
The cultures were grown at 37° C. to approximately 0.5 O.D. 550 nm.
The activity of PNAs in an in vivo assay was determined. […] 5-8 were included in cultures of permeable E. coli strain AS19 (Sekiguchi, ibid.) and the expression of β-galactosidase and β-lactamase was measured in cells exposed to IPTG at various time points.
The inhibition of β-lactamase production was evaluated by growing cells in the presence of PNA from an early stage to mid log phase.
The in vivo specificity of selected PNAs (SEQ ID NOs. 6 and 7) was determined using E. coli AS19 that was transformed with pBR322 and its derivatives containing the target site mutations (pLac-2 and pLac-6).

[2] = test system: β-lactamase (start codon region); assay type: biochemical, E. coli; settings: for IC50: read-out: PNA concentration required for 50 % inhibition (IC50) of β-lactamase activity, S-30 cell extract, unmodified gene
[3] = test system: E. coli mutant strain (AS19); experiment: cell growth assay using E. coli (AS19); settings: 100 μL liquid cultures
Protocol: Growth assays were initiated using Luria Broth (LB) Media inoculated with 1% (v/v) of an overnight E. coli culture. […] For liquid media cultures, 100 μL of inoculated LB media was aliquoted into microtitre plate wells containing PNA or antibiotic solutions and the plates were incubated overnight at 37° C. The presence or absence of growth was assessed visually as a zone of clearing on solid media or as a lack of turbidity in liquid cultures.
The assay was repeated with the cells in 100 μL liquid cultures. […] The inhibition was determined to be that concentration which visibly limited the growth of the E. coli in a 100 μL culture.

E. coli strain K12 = experiment: cell growth assay using E. coli (K12); settings: 2 μL applied onto solid media, overnight 37° C.
Protocol: Growth assays were initiated using Luria Broth (LB) Media inoculated with 1% (v/v) of an overnight E. coli culture. For solid media cultures, 2 mL of molten LB/agar media was inoculated and spread onto pre-warmed (LB)/agar plates. The excess molten media was poured off and the plates were left to solidity for 30 minutes. PNA and antibiotic solutions were pipetted (2 μL) directly onto the solidified overlay and the plates were incubated overnight at 37° C. For liquid media cultures, 100 μL of inoculated LB media was aliquoted into microtitre plate wells containing PNA or antibiotic solutions and the plates were incubated overnight at 37° C. The presence or absence of growth was assessed visually as a zone of clearing on solid media or as a lack of turbidity in liquid cultures.
The inhibition of cell growth was examined using PNA sequences 9-18 in E. coli grown on agar media. Luria broth (LB)/agar plates were prepared with a thin overlay of media containing an inoculum of E. coli strain K12. PNA solutions were applied directly onto the solidified overlay by direct pipetting of 2 μL aliquotes. After overnight incubation at 37° C., a lawn of bacterial cells was established.

Ribosomal RNAs [4] = experiment: transcription vs. translation assay (32P-UTP and 35S-methionine incorporation); assay type: biochemical, E. coli; settings: increasing concentrations of PNA
Protocol: Transcription in the cell-free system was assayed using reactions that contained 34 μM of cold UTP and 1 μCi ^32P-UTP. After 30 minutes the reactions were stopped with 10 volumes of 5% TCA and incubated on ice for 30 minutes. Translation in the cell-free system was assayed using reactions that contained 5 mM cold UTP and 1 μCi ^35S-methionine. After 30 minutes the reactions were stopped with an equal volume of 1 M NaOH and placed at 37° C. for 15 minutes. An equal volume of cold 50% TCA containing 2% casein hydrolysate acids was added and after 30 minutes on ice, 1 mL of 5% TCA was added. The TCA precipitable material having radioactivity was collected by vacuum filtration, rinsed five times with 5% TCA and dried. Cerenkov and scintillation counting were used to determine ^32P-UTP and ^35S-methionine incorporation.
The transcription and translation activities yielding β-galactosidase was examined using ^32P-UTP and ^35S-methionine in the assay procedures of Example 5. With increasing concentrations of targeted PNA (SEQ ID NOs. 12 and 13), the level of radioactive methionine incorporation was reduced.

Ribosomal RNAs [5] = experiment: cell-free translation assay (β-galactosidase production) with PNA targeted to ribosomal RNAs; assay type: biochemical, E. coli; settings: S-30 cell extract, ONPG
Protocol: as §1
Plasmid DNA encoding β-galactosidase was added to a template depleted E. coli S-30 cell extract along with the reagents necessary for coupled transcription/translation (Chen, ibid; Ellman, J., ibid). Production of β-galactosidase was measured […] using the substrate ONPG (Miller, ibid). The assay is sensitive to inhibitors that prevent complete or accurate translation of the enzyme. Several of the targeted PNAs inhibited β-galactosidase production in a dose dependent manner, with IC50s in the nanomolar range. […] The SEQ ID Nos. and the sequences are shown below in Table 2.
PNAs of similar composition, but unrelated sequence, were assayed along with targeted PNAs as controls for non-sequence specific effects. […] No inhibition was detected at a dose of 1 μM for the control PNAs.

[6] = test system: E. coli lac repressor gene (start codon region); experiment: PNA-mediated upregulation of beta-galactosidase on X-gal LB/agar plate; assay type: cell-based; settings: lawn of E. coli AS19 on LB/agar with X-gal
Protocol: An antisense PNA (H-[…]-Lys-NH2, SEQ ID No: 27) was prepared targeting the start codon region of the E. coli lac repressor gene. The lacR gene normally limits beta-galactosidase expression in E. coli cells that are grown in nutrient rich conditions, without lactose. The anti-lacR PNA (SEQ ID No: 27) was applied to a lawn of E. coli AS19 cells grown on a LB/agar plate containing a chromogenic beta-galactosidase substrate (X-gal). The petri plate was prepared as described above.

[7] = concentrations as high as 400 nM

In the case of “5 (GGTCATAGCTGTTTC; all peptide nucleic acid (PNA), 3' {LysNH2}; further chemistry not fully specified) [compound 5]”, the IC50 ([1]; read-out: PNA concentration required for 50 % inhibition (IC50) of β-galactosidase activity, S-30 cell extract, coupled transcription and translation) is reported as 10 nM.

In the case of “6 (TACTCATACTCTTCC; chemistry not given here) [compound 6]”, the “inhibition of β-lactamase production in strain carrying two base substitutions” value (β-lactamase) is reported as “reduced”, the “inhibition of β-lactamase production in strain carrying 6 base substitutions” value (β-lactamase) is reported as “abolished” and the IC50 [2] is reported as 30 nM.

“7 (GAATACTCATACTCT; chemistry not given here) [compound 7]” was tested, and the “inhibition of β-lactamase production in strain carrying two base substitutions” value (β-lactamase) was “reduced”, the “inhibition of β-lactamase production in strain carrying 6 base substitutions” value (β-lactamase) was “abolished” and the IC50 [2] was 200 nM.

With “8 (ACGCCACATCTTCGC; chemistry not given here) [compound 8]” the “inhibition of β-galactosidase production” value [1, 7] was “no inhibition” and the “inhibition of β-lactamase production” value [2, 7] was “no inhibition”.

With “12 (TTNTNNNTTTNTNTCTTTCCGTCTT; listed as DNA, chemistry not given here) [compound 12]” the “concentration which visibly limited growth” value [3] was 30 µM, the “growth inhibition (zones of clearing)” value (E. coli strain K12) was “inhibited cell growth” and the “level of radioactive UTP (transcription)” value (Ribosomal RNAs [4]) was “remained the same”. For the same substance, the “level of radioactive methionine incorporation (translation)” value (Ribosomal RNAs [4]) was “reduced” and the IC50 (Ribosomal RNAs [5]) was 200 nM.

In the case of “13 (NTNTNNTNTCCTCTC; listed as DNA, chemistry not given here) [compound 13]”, the “concentration which visibly limited growth” value [3] is reported as 10 µM, the “growth inhibition (zones of clearing)” value (E. coli strain K12) is reported as “inhibited cell growth” and the “level of radioactive UTP (transcription)” value (Ribosomal RNAs [4]) is reported as “remained the same”. For the same substance, the “level of radioactive methionine incorporation (translation)” value (Ribosomal RNAs [4]) was “reduced” and the IC50 (Ribosomal RNAs [5]) was 350 nM.

“27 (ACATTCACCACCCTG; all peptide nucleic acid (PNA), 3' {LysNH2}; further chemistry not fully specified) [compound 27]” was tested, and the “beta-galactosidase production (blue zone at sites of application)” value [6] was “Increased beta-galactosidase production”.
